Reference: US20250116657A1, “HIGH-THROUGHPUT ASSAY FOR CELL MIGRATION, CHEMOTAXIS, AND FUNCTION” (GlaxoSmithKline Intellectual Property Development Limited, priority 2022, published 2025)

Tests used:
Assay type in all cases: cell-based
[1] = system: HT29-GFP colorectal cancer cells; assay: HT29-GFP colorectal cancer cell killing within ECM-filled 2-lane Mimetas ORGANOPLATE (GFP cell debris image analysis); settings: 10 μM, 5 days, 7-day old single cell colonies, 750 cells
Protocol: Single cells were seen to be uniformly dispensed across the microfluidic lanes and grew into single cell colonies over time.
2-lane Mimetas ORGANOPLATE® wells harboring 7-day old single cell colonies with either 500 cells or 750 cells were treated with 0 or 10 μM Bortezomib (sold under the brand name Velcade in the United States; CAS 179324-69-7) to observe cell killing within the channel over 5 days.

[2] = system: activated CD3+ T-cells; assay: Activated CD3+ T-cell chemotaxis through end-to-end collagen-matrigel ECM plug in 2-lane Mimetas ORGANOPLATE; settings: for lowest concentration with robust chemotaxis response (migration length) compared to blank media control / lowest concentration with significantly higher total number of responding activated T-cells over blank media controls: 10,000 cells, 96 hours; for lowest concentration with robust chemotaxis response (migration length) compared to blank media control: chemokine refreshed at 48 hours; for lowest concentration with significantly higher total number of responding activated T-cells over blank media controls: one-way ANOVA
Protocol: 50 μl of 37° C. warmed 1×PBS were added to wells in columns 3, 7, 11, 15, 19 and 23 observation windows of Mimetas 2-lane ORGANOPLATE® and stored at 4° C. 5 μl of ice-cold 2 mg/ml collagen mixed with 10% (v/v) of low endotoxin matrigel GFR were added to wells in columns 4, 8, 12, 16, 20 and 24 of chilled Mimetas 2-lane ORGANOPLATE® to potentially create aligned collagen fibers within the microfluidic channels. After the ECM filled all the microfluidic channels, 1 μl of ice-cold ECM was quickly added to wells in columns 1, 2, 5, 6, 9, 10, 13, 14, 17, 18, 21, and 22 to allow for contact to be established between the ECM footprints. 4.5 ml of 37° C. warmed ultrapure water was added to both the ends of sterile MicroClime Environmental Lid and placed atop the Mimetas ORGANOPLATE®. The assembly was placed in a humidified 37° C. cell culture incubator for 45 minutes to ensure complete gelation of all the wells throughout the plate and used for the experiment.
After the gelation, 50 μl of blank media was added to the wells of columns 1, 5, 9, 13, 17 and 21 followed by 50 μl of the desired chemokine at different concentrations in wells of columns 4, 8, 12, 16, 20 and 24. 1:1000 (v/v) NUCLIGHT® Rapid Red dye stained and washed activated CD3+ T-cells were quickly added towards the mouth of the channel allowing increased deposition of cells closer to the mouth of the channel in the wells of column 2, 6, 10, 14, 18 and 22 in RPMI media with 0.5% FBS. CD3+ T-cells were activated for 48 hours prior the experiment with 1:500 (v/v) TRANSACT® beads with 20 IU/mL IL2 in RPMI media with 10% FBS. The ORGANOPLATE® was left undisturbed for 3-5 minutes to allow T-cell settling followed by placing them in humidified 37° C. incubator for the duration of the experiment. Chemokines were replaced as needed after 48 and 96 hours along with the 37° C. warmed ultrapure water within the sterile MicroClime Environmental Lid.
Wells from columns 2, 3, 4, 6, 7, 8, 10, 11, 12, 14, 15, 16, 18, 19, 20, 22, 23 and 24 were imaged in the far red and bright field channels at 4× magnification on days 0, 1, 2, 3, 4, 5 and 6 using an INCELL™ 6500 confocal microscope to identify the cells within the migrating channel. Z-stack of six images at different focal planes 50 μm apart spanning the thickness of the microfluidic channel were captured followed by maximum projection to create a singular image of the migratory channel. Images were then transferred to COLUMBUS™ image segmentation software to extract the X-Y location of the migratory CD3+ T-cells within the microfluidic channel. Area cut-offs and positive signal over background were used to accurately identify the fluorescent T-cells over the background.
The X-Y data of the CD3+ T-cells was transferred to SPOTFIRE™ analytics platform for image representation. The X axis location of the migratory T-cells across 4 different replicate wells were pooled and represented as a horizontal violin plot using the GRAPHPAD™ prism. Kruskal-Wallis test for statistical significance was used to understand the significance of a chemokine concentration in driving increased migration distance into the end-to-end solid ECM channel over blank media controls. Replicates were individually compared amongst each other to ensure significance between the sample and replicate and the lowest significance difference was represented in the graph. […]

[3] = system: naive CD3+ T-cells; assay: Naive CD3+ T-cell chemotaxis through ECM plug in 2-lane Mimetas ORGANOPLATE; settings: 2.5 μM CXCR3 agonist
Protocol: Nuclight rapid red dye stained naive CD3+ T-cells were added closer to the mouth of the channel at the one end (well/frame 2 (102) of extracellular matrix (2 mg/mL collagen+10% (v/v) Matrigel GFR) filled within 2-lane Mimetas ORGANOPLATE®) to evaluate chemotaxis in response to the small molecule agonist applied to other end of the extracellular matrix plug (well/frame 4 (104)). Well/frame 1 (101) was filled with blank media. […] In order to enhance the adhesion of naïve T-cells to the extracellular matrix, 1 μg/mL of ICAM1 (Intercellular Adhesion Molecule 1, also known as Cluster of Differentiation 54 (CD54)) was also spiked into well/frame 2 of the assay system along with the T-cells. Chemotaxis potential was measured via confocal microscopy, identifying the number of naïve T-cells under migration in response to the chemokine gradient generated within the extracellular matrix.

Row | Molecule | lowest concentration with robust chemotaxis response (migration length) compared to blank media control [2] [nM] | lowest concentration with significantly higher total number of responding activated T-cells over blank media controls [2] [nM] | other results
1 | CC(C)C[C@H](NC(=O)[C@H](Cc1ccccc1)NC(=O)c1cnccn1)B(O)O [Bortezomib] | – | – | number of GFP cell debris aggregates (cell killing) versus 0 μM [1]: statistically significant increase
2 | CXCL10: recombinant chemokine, R&D Systems catalog 266-IP | 37.5 | 150 | –
3 | CXCL12: recombinant chemokine, R&D Systems catalog 350-NS | 37.5 | 18.75 | chemotaxis of activated CD3+ T-cells compared to 0 nM ([2]; 300 nM, 120 hours, cells in well 2, media in well 1, chemokine in well 4, refreshed after 48 hours): significantly higher chemotaxis
4 | ICAM1: Intercellular Adhesion Molecule 1, also known as Cluster of Differentiation 54 (CD54) (protein, UniProt P05362 28-532, looked up) Intercellular adhesion …: QTSVSPSKVILPRGGSVLVTCSTSCDQPKLLGIETPLPKKELLLPGNNRKVYELSNVQEDSQPMCYSNCPDGQSTAKTFLTVYWTPERVELAPLPSWQPVGKNLTLRCQVEGGAPRANLTVVLLRGEKELKREPAVGEPAEVTTTVLVRRDHHGANFSCRTELDLRPQGLELFENTSAPYQLQTFVLPATPPQLVSPRVLEVDTQGTVVCSLDGLFPVSEAQVHLALGDQRLNPTVTYGNDSFSAKASVSVTAEDEGTQRLTCAVILGNQSQETLQTVTIYSFPAPNVILTKPEVSEGTEVTVKCEAHPRAKVTLNGVPAQPLGPRAQLLLKATPEDNGRSFSCSATLEVAGQLIHKNQTRELRVLYGPRLDERDCPGNWTWPENSQQTPMCQAWGNPLPELKCLKDGTFPLPIGESVTVTRDLEGTYLCRARSTQGEVTRKVTVNVLSPRYEIVIITVVAAAVIMGTAGLSTYLYNRQRKIKKYRLQQAQKGTPMKPNTQATPP | – | – | effect of addition on number of naive T-cells responding to the chemokine gradient ([3]; 1 μg/mL in well 2, 35000 cells): did not influence; impact of inclusion on chemotaxis outcome ([3]; 1 μg/mL in well 2, higher naive T-cell numbers (100,000-150,000)): non-significant impact
